Source: publication PMC3989846 (Malaria Journal, 2014)

Tests used:
[1] = system: P. berghei ANKA blood stage parasitaemia; experiment: Blood stage infection by flow cytometry (FCM) and causal prophylaxis outcome after sporozoite challenge; format: in vivo, Plasmodium berghei; settings: for Effects: CP = causal prophylaxis; for Blood Infection by FCM: infected/challenged mice
Method: Novel and control anti-malarials were administered orally on days -1, 0, and 1 with respect to sporozoite inoculation. […] Additionally, blood stage infections were measured by flow cytometry. Positive and negative controls were used for the IVIS calibration in each test.
(§1) Causal prophylactic effects and delay in onset of parasitaemia in animals treated with TQ and PQ (Figure 1) were assessed in these experiments, which included a positive control, 4-methyl-PQ. All dosing was conducted based on the body weight at the time of preparation of the dosing solution. […] Each animal received 0.1 - 0.2 ml of the oral solutions, delivered via an intragastric feeder (18-gauge) to the designated recipient. Stock solutions of test compounds were prepared fresh daily by grinding the needed amount of drug in cold (4°C) 0.5% (w/v) hydroxyethyl cellulose and 0.2% (v/v) Tween-80 (0.5% HECT) and diluting the resulting solution at variable concentrations. C57BL/6 albino mice were challenged intravenously with 50,000 luciferase-expressing P. berghei sporozoites extracted from the salivary glands of heavily infected An. stephensi mosquitoes. […] At day 5–30 after infection, the same mice were analysed for blood stage infection by determination of the course of parasitaemia of tail blood by flow cytometry using an FC500 flow cytometer (Beckman-Coulter Co. CA).
At day 5–30 after infection, the same mice were analysed for blood stage infections by quantitation of malaria parasites by flow cytometry (FCM). All FCM analyses were carried out with a FC500 MPL flow cytometer (Beckman Coulter, Fullerton, CA), which conducts five-colour analysis from either single or dual laser excitation. Infected erythrocytes, uninfected erythrocytes, and leukocytes were gated on logarithmic forward/side dot plots. Cells were analysed at an average rate of 2,000-3,000 erythrocytes/s. Filters were placed before the green (FL-1) and red (FL-2) photomultiplier tubes (PMTs) such that the green PMT registered fluorescence emission between 520 and 555 nm, and the red PMT measured emission greater than 580 nm.
A drop of blood (3 μL) from the mouse tail was collected directly into 0.3 ml of 1% heparinized isotonic buffer (PBS saline). In this study, 1 ml 0.04% of glutaraldehyde was used for fixation and the samples were then incubated at 4°C for 60 minutes. The cells were centrifuged at 450 × g for 5 min. […] After centrifugation, the permeabilized cells were re-suspended in 0.5 ml of RNAse at 1 mg/ml concentrations and incubated for at least 2 hours at 37°C to ensure complete digestion of reticulocytes. Plasmodium berghei infection in mice results in anaemia which then results in reticulocytosis. Therefore, high RNAse concentrations for digesting large amounts of reticulocytes RNA were required for assessment of parasitaemia in this mouse model.
In the in vivo imaging experiments, causal prophylaxis activity, sporontocidal activity, parasite clearance, causal cure, delays in patency, and time to recrudescence were calculated as described previously. The minimum curative dose (MCD100) in 100% animals was defined as the lowest dose, which cured all animals (>5 animals) in a group at any time during the first 30 days of the follow-up period. […] Means and standard deviations of photon measurement were calculated. Blood stage infection was defined as two positive blood samples by flow cytometry, taken daily apart. The negative blood samples were monitored until day 15 after inoculation. Coefficients of variation were calculated as a percentage by dividing the standard deviation by the mean value.

[2] = system: luciferase-expressing P. berghei ANKA sporozoites; experiment: Real time in vivo imaging (IVIS) of liver-stage luminescence in sporozoite-infected mice; design: species or system Plasmodium berghei; settings: for Suppression rate (%) IVIS 24 h: 24 h post infection; for Suppression rate (%) IVIS 48 h: 48 h post infection; for Suppression rate (%) IVIS 72 h: 72 h post infection
Source text: Luciferase-expressing P. berghei ANKA sporozoites were obtained from laboratory-reared female An. stephensi mosquitoes from the Department of Mosquito Biology, WRAIR. […] Salivary glands were extracted from malaria-infected mosquitoes and kept on ice in RPMI medium with 1% mouse serum. Sporozoites will be recovered by the method of Ozaki, and quantitated using a haemocytometer. Sporozoites isolated from the same batch of mosquitoes will be inoculated into C57BL/6 albino mice on the same day to control for biological variability in sporozoite preparations. Each C57BL/6 mouse will be inoculated intravenously in the tail vein with approximately 50,000 sporozoites suspended in 0.1 mL volume on day 0. To ensure that inoculated sporozoites are viable following the isolation procedure, they will be stained with a vital dye containing fluorescein diacetate (50 mg/mL in acetone) and ethidium bromide (20 μg/mL in phosphate-buffered saline; Sigma Chemical Co., St. Louis, Mo.) and counted in a haemocytometer.
[…] […] Additionally, blood stage infections were measured by flow cytometry. Positive and negative controls were used for the IVIS calibration in each test.
as §1
In vivo imaging studies of bioluminescence activity from luciferase expressing P. berghei infected mice were performed using a Perkin Elmer IVIS Spectrum (Hanover, MD). […] Three minutes post luciferin administration the mice were anesthetized with inhaled isoflurane. The mice were then positioned ventral side up in the IVIS on a 37°C platform. The mice continue to receive isoflurane through nose cone delivery. The camera exposure times utilized were 1 and 5 minutes for the 24, 48, and 72 hour time points with f-stop = 1 and large binning setting. Quantitative analysis of bioluminescence emitted from whole bodies or region of intensity (ROI) were determined by measuring the luminescence signal intensity in photons/second using the ROI settings of the Living Image® 3.0 software. The ROI, which measurements were expressed in total flux of photons, was set to measure the abdominal area at the location of the liver from whole body imaging.
In the in vivo imaging experiments, causal prophylaxis activity, sporontocidal activity, parasite clearance, causal cure, delays in patency, and time to recrudescence were calculated as described previously. The minimum curative dose (MCD100) in 100% animals was defined as the lowest dose, which cured all animals (>5 animals) in a group at any time during the first 30 days of the follow-up period.

[3] = design: method as in PMID 15378438, PMID 10479159; settings: cited from earlier work
[4] = 1.25 mg/kg oral, 3 days (-1, 0, 1)
[5] = 5 mg/kg oral, 3 days (-1, 0, 1)
[6] = 5 mg/kg single oral dose on day 0
[7] = 5 mg/kg single oral dose on day -1
[8] = 10 mg/kg oral, 3 days (-1, 0, 1)

COc1cc(C)c2c(Oc3cccc(C(F)(F)F)c3)c(OC)cc(NC(C)CCCN)c2n1 (stereo not shown) [Tafenoquine, tafenoquine]
Number of C57BL/albino mice Causal prophylaxis [1, 4]: 1/5
Number of C57BL/albino mice Protected completely [1, 4]: 1
Effects [1, 4]: Suppression
Blood Infection by FCM [1, 4]: 4/5
Number of C57BL/albino mice Causal prophylaxis [1, 5]: 13/13
Number of C57BL/albino mice Protected completely [1, 5]: 13
Effects [1, 5]: Full CP
Blood Infection by FCM [1, 5]: 0/13
Number of C57BL/albino mice Causal prophylaxis [1, 6]: 1/5
Number of C57BL/albino mice Protected completely [1, 6]: 1
Effects [1, 6]: Partial CP
Blood Infection by FCM [1, 6]: 4/5
Number of C57BL/albino mice Causal prophylaxis [1, 7]: 10/10
Number of C57BL/albino mice Protected completely [1, 7]: 10
Effects [1, 7]: Full CP
Blood Infection by FCM [1, 7]: 0/10
Blood Infection by FCM ([1]; 5 mg/kg single oral dose on day -1, listed as TQ): no blood stage parasitaemia
Number of C57BL/albino mice Causal prophylaxis [1, 8]: 5/5
Number of C57BL/albino mice Protected completely [1, 8]: 5
Effects [1, 8]: Full CP
Blood Infection by FCM [1, 8]: 0/5
Number of C57BL/albino mice Causal prophylaxis ([1]; […] oral, 3 days (-1, 0, 1)): 3/5
Number of C57BL/albino mice Protected completely ([1]; […] oral, 3 days (-1, 0, 1)): 3
minimal curative single oral dose ([1]; single oral dose, causal prophylaxis in mice): 5 mg/kg
causal activity ([1]; three oral doses: TQ 5 mg/kg, PQ 25 mg/kg): 100%
Suppression rate (%) IVIS 24 h [2, 4]: 84.7%
Suppression rate (%) IVIS 48 h [2, 4]: 92.3%
Suppression rate (%) IVIS 72 h [2, 4]: 98.9%
Suppression rate (%) IVIS 48 h [2, 5]: 100%
Suppression rate (%) IVIS 72 h [2, 5]: 100%
Suppression rate (%) IVIS 24 h [2, 6]: 66.0%
Suppression rate (%) IVIS 48 h [2, 6]: 91.1%
Suppression rate (%) IVIS 72 h [2, 6]: 98.5%
Suppression rate (%) IVIS 24 h [2, 7]: 68.7%
Suppression rate (%) IVIS 48 h [2, 7]: 98.6%
Suppression rate (%) IVIS 72 h [2, 7]: 100%
Suppression rate (%) IVIS 24 h [2, 8]: 100%
Suppression rate (%) IVIS 48 h [2, 8]: 100%
Suppression rate (%) IVIS 72 h [2, 8]: 100%
half-life [3]: approximately 14 days
